Results: patent publication US6376670B1, “Quinoline-indole antimicrobial agents, uses and compositions related thereto” (Sepracor Inc., priority 1997, dated 2002)
Read-outs that look alike come from different tables or passages of the source.

Experiments:
Experiment in all cases: Determination of MIC values (BHI broth, 96 well microtiter plate)
Type in all cases: cell-based
[1] = tested on: Streptococcus pneumoniae; details: Streptococcus pneumoniae, BHI broth, read-out: MIC S. pneu
Experimental: (§1) Stock solutions of compounds are prepared with a concentration of 10 mg/mL. These solutions are then diluted 1:4 to give a concentration of 2.5 mg/mL. The compounds are then serially diluted 1:2 for 6 iterations. The concentrations made for each compound are 2.5, 1.25, 0.625, 0.3125, 0.156, 0.078, and 0.039 mg/mL. A control sample (no compound) is run along with each compound tested. All dilutions are made in DMSO.
(§2) All wells of a 96 well microtiter plate are filled with 100 μL of BHI (Brain-Heart Infusion) broth. Columns on the plate are labeled 1-12, and rows are labeled A-H. Each column of wells is used to test one series of diluted compounds. Into each well of 100 μL of BHI broth, 1 μL of diluted compound is placed for a 1:100 dilution. This makes the final concentration of each drug series 25, 12.5, 6.25, 3.125, 1.56, 0.78, 0.39, and 0 μg/mL.
(§3) Test Organism: A sterile 15 mL screw cap tube is filled wth 3 mL of BHI broth. Next, 2-3 colonies of test organism are inoculated into the tube. The tube is then incubated at 37° C. in a CO2 (approx. 7%) atmosphere jar. The organisms are allowed to grow to the density of a 0.5 McFarland standard (10^8 cells/mL). The organism is then inoculated into each well of the microtiter plate containing the diluted compounds to be tested for MIC. The inoculum is 1 μL in volume and represents 10^5 to 10^6 cells/mL.
(§4) After inoculation the plates are covered and incubated at 37° C. and approx. 7-10% CO2 atmosphere overnight (about 16 hours). The plates are then observed for growth, the well with the lowest concentration of drug and no observable growth represents the well determining the MIC.

[2] = tested on: methicillin-resistant Staphylococcus aureus (MRSA); details: Staphylococcus aureus, MRSA, BHI broth, read-out: MIC MRSA
Experimental: as §1, §2, §3, §4

[3] = tested on: vancomycin-resistant Enterococcus spp. (VRE); details: Enterococcus, VRE, BHI broth, read-out: MIC VREF
Experimental: as §1, §2, §3, §4

[4] = 37° C., overnight (about 16 hours)
[5] = 16 h, 37° C., overnight (about 16 hours)

| SMILES | MIC [2, 5] | MIC [3, 5] | MIC ([2]; overnight 37° C.) | MIC ([3]; VREF, overnight 37° C.) | also measured |
| --- | --- | --- | --- | --- | --- |
| COc1ccc(NC(=O)c2cc(-c3c[nH]c4ccc(Br)cc34)nc3ccccc23)cc1 [Example 48] | < 7 µg/mL | > 25 µg/mL |  |  | MIC [1, 4]: < 7 µg/mL |
| O=C(O)c1ccc2[nH]cc(-c3cc(C(=O)O)c4ccccc4n3)c2c1 [Example 76] | > 25 µg/mL | > 25 µg/mL |  |  | MIC [1, 4]: > 25 µg/mL |
| NCc1ccc(CNC(=O)c2cc(-c3c[nH]c4ccc(Br)cc34)nc3ccc(-c4ccccc4)cc23)cc1 [Example 96] | < 7 µg/mL | < 7 µg/mL |  |  | MIC [1, 4]: < 7 µg/mL |
| NCc1ccc(CNC(=O)c2cc(-c3c[nH]c4ccc(Br)cc34)nc3c(Cl)cc(I)cc23)cc1 [Example 102] | < 7 µg/mL | < 7 µg/mL |  |  | MIC [1, 4]: < 7 µg/mL |
| NCc1ccc(CNC(=O)c2cc(-c3c[nH]c4ccc(Br)cc34)nc3ccc(C(F)(F)F)cc23)cc1 [Example 103] | < 7 µg/mL | < 7 µg/mL |  |  | MIC [1, 4]: < 7 µg/mL |
| Cc1ccc2nc(-c3c[nH]c4ccc(Br)cc34)cc(C(=O)NCc3ccc(CN)cc3)c2c1 [Example 104] | < 7 µg/mL | < 7 µg/mL |  |  | MIC [1, 4]: < 7 µg/mL |
| NCCCNC(=O)c1cc(-c2c[nH]c3ccc(Br)cc23)nc2ccc(I)cc12 [Example 108] | < 7 µg/mL | < 7 µg/mL |  |  | MIC [1, 4]: < 7 µg/mL |
| NCCCCNC(=O)c1cc(-c2c[nH]c3ccc(Br)cc23)nc2ccc(I)cc12 [Example 109] | < 7 µg/mL | < 7 µg/mL |  |  | MIC [1, 4]: < 7 µg/mL |
| NCCCCCNC(=O)c1cc(-c2c[nH]c3ccc(Br)cc23)nc2ccc(I)cc12 [Example 110] | < 7 µg/mL | < 7 µg/mL |  |  | MIC [1, 4]: < 7 µg/mL |
| NCCCCCCNC(=O)c1cc(-c2c[nH]c3ccc(Br)cc23)nc2ccc(I)cc12 [Example 111] | < 7 µg/mL | < 7 µg/mL |  |  | MIC [1, 4]: < 7 µg/mL |
| NC1CCCCC1NC(=O)c1cc(-c2c[nH]c3ccc(Br)cc23)nc2ccc(I)cc12 (stereo not shown) [Example 112] | < 7 µg/mL | < 7 µg/mL |  |  | MIC [1, 4]: < 7 µg/mL |
| NC1CCC(NC(=O)c2cc(-c3c[nH]c4ccc(Br)cc34)nc3ccc(I)cc23)CC1 (stereo not shown) [Example 113] | < 7 µg/mL | < 7 µg/mL |  |  | MIC [1, 4]: < 7 µg/mL |
| NCC1CCC(CNC(=O)c2cc(-c3c[nH]c4ccc(Br)cc34)nc3ccc(I)cc23)CC1 (stereo not shown) [Example 114] | < 7 µg/mL | < 7 µg/mL |  |  | MIC [1, 4]: < 7 µg/mL |
| Fc1cccc2[nH]cc(-c3ccc4ccccc4n3)c12 [Example 182] | > 25 µg/mL | > 25 µg/mL |  |  |  |
| COc1ccc2[nH]cc(-c3ccc4ccccc4n3)c2c1 [Example 185] | < 25 µg/mL | > 25 µg/mL |  |  |  |
| O=[N+]([O-])c1ccc2[nH]cc(-c3ccc4ccccc4n3)c2c1 [Example 186] | > 25 µg/mL | > 25 µg/mL |  |  |  |
| Cc1[nH]c2ccccc2c1-c1ccc2ccccc2n1 [Example 187] | > 25 µg/mL | > 25 µg/mL |  |  |  |
| Cc1ccc2[nH]cc(-c3ccc4ccccc4n3)c2c1 [Example 188] | > 25 µg/mL | > 25 µg/mL |  |  |  |
| Cc1cccc2c(-c3ccc4ccccc4n3)c[nH]c12 [Example 189] | < 25 µg/mL | < 25 µg/mL |  |  |  |

| SMILES | MIC [2, 5] | MIC [3, 5] | MIC ([2]; overnight 37° C.) | MIC ([3]; VREF, overnight 37° C.) | also measured |
| --- | --- | --- | --- | --- | --- |
| N#Cc1ccc2[nH]cc(-c3ccc4ccccc4n3)c2c1 [Example 190] | > 25 µg/mL | > 25 µg/mL |  |  |  |
| Fc1cccc2[nH]cc(-c3ccc4cc(Cl)ccc4n3)c12 [Example 192] | > 25 µg/mL | > 25 µg/mL |  |  |  |
| Cc1[nH]c2ccccc2c1-c1ccc2cc(Cl)ccc2n1 [Example 197] | < 7 µg/mL | > 25 µg/mL |  |  |  |
| Cc1ccc2[nH]cc(-c3ccc4cc(Cl)ccc4n3)c2c1 [Example 198] | > 25 µg/mL | > 25 µg/mL |  |  |  |
| Clc1ccc2nc(-c3c(-c4ccccc4)[nH]c4ccccc34)ccc2c1 [Example 203] |  |  | > 25 µg/mL | > 25 µg/mL |  |
| Oc1ccc2[nH]cc(-c3ccc4cc(Cl)ccc4n3)c2c1 [Example 205] |  |  | < 25 µg/mL | < 25 µg/mL |  |
| COc1cc2[nH]cc(-c3ccc4cc(Cl)ccc4n3)c2cc1OC [Example 206] |  |  | > 25 µg/mL | > 25 µg/mL |  |
| O=C(O)c1cc(-c2c[nH]c3ccc(Br)cc23)nc2ccc(C#CCN3CCNCC3)cc12 [Example 207] |  |  | > 25 µg/mL | < 25 µg/mL |  |
| Cn1cc(-c2ccc3cc(Cl)ccc3n2)c2cc(F)ccc21 [Example 210] |  |  | < 7 µg/mL | > 25 µg/mL |  |
| Cn1cc(-c2ccc3cc(Cl)ccc3n2)c2ccc(F)cc21 [Example 212] |  |  | > 25 µg/mL | > 25 µg/mL |  |
| Cn1cc(-c2ccc3cc(Cl)ccc3n2)c2cc(OCc3ccccc3)ccc21 [Example 213] |  |  | < 25 µg/mL | < 25 µg/mL |  |
| COc1ccc2c(c1)c(-c1ccc3cc(Cl)ccc3n1)cn2C [Example 214] |  |  | < 25 µg/mL | > 25 µg/mL |  |
| Cc1c(-c2ccc3cc(Cl)ccc3n2)c2ccccc2n1C [Example 215] |  |  | < 7 µg/mL | < 25 µg/mL |  |
| Cc1ccc2c(c1)c(-c1ccc3cc(Cl)ccc3n1)cn2C [Example 216] |  |  | < 25 µg/mL | > 25 µg/mL |  |
| Cn1c(-c2ccccc2)c(-c2ccc3cc(Cl)ccc3n2)c2ccccc21 [Example 220] |  |  | < 25 µg/mL | > 25 µg/mL |  |
| COc1cc2c(-c3ccc4cc(Cl)ccc4n3)cn(C)c2cc1OC [Example 222] |  |  | > 25 µg/mL | > 25 µg/mL |  |
| CN(CC#Cc1ccc2nc(-c3c[nH]c4ccc(Br)cc34)cc(C(=O)NCc3ccc(CN)cc3)c2c1)C1CCCCC1 [Example 237] |  |  | < 7 µg/mL | < 7 µg/mL |  |
| NCC1CCCC(CNC(=O)c2cc(-c3c[nH]c4ccc(Br)cc34)nc3cc(F)ccc23)C1 (stereo not shown) [Example 255] |  |  | < 7 µg/mL | < 7 µg/mL |  |
| CN(CC#Cc1ccc2c(C(=O)NCc3ccc(CN)cc3)cc(-c3c[nH]c4ccc(Br)cc34)nc2c1)C1CCCCC1 [Example 264] |  |  | < 7 µg/mL | < 25 µg/mL |  |

| SMILES | MIC [2, 5] | MIC [3, 5] | MIC ([2]; overnight 37° C.) | MIC ([3]; VREF, overnight 37° C.) | also measured |
| --- | --- | --- | --- | --- | --- |
| CN(CC#Cc1cccc2c(C(=O)NCc3ccc(CN)cc3)cc(-c3c[nH]c4ccc(Br)cc34)nc12)C1CCCCC1 [Example 265] |  |  | < 7 µg/mL | < 7 µg/mL |  |
| O=C1c2ccccc2C(=O)N1CCCCn1cc(-c2ccc3cc(Cl)ccc3n2)c2ccc(F)cc21 [Example 267] |  |  | > 25 µg/mL | > 25 µg/mL |  |
| NCc1ccc(CNC(=O)c2cc(-c3c[nH]c4ccc(Br)cc34)nc3cc(Cl)c(C#CCN4CCCCC4)cc23)cc1 [Example 268] |  |  | < 7 µg/mL | < 7 µg/mL |  |
| Cn1cc(-c2cc(C(=O)NCc3ccc(CN)cc3)c3cc(I)ccc3n2)c2cc(Br)ccc21 [Example 269] |  |  | < 7 µg/mL | < 7 µg/mL |  |
| Cn1cc(-c2cc(C(=O)NCc3ccc(CN)cc3)c3cc(I)ccc3n2)c2cc(Br)ccc21 [Example 299] |  |  |  |  | MIC ([1]; S. pneu, overnight 37° C.): < 7 µg/mL |
| Cc1ccc2nc(-c3c[nH]c4ccc(C#N)cc34)ccc2c1 [Example 433] |  |  |  |  | MIC ([2]; 16 h, 37° C., about 16 hours): < 7 µg/mL; MIC ([3]; 16 h, 37° C., about 16 hours): > 25 µg/mL |
| Cc1cccc2ccc(-c3c[nH]c4c(C)cccc34)nc12 [Example 471] |  |  |  |  | MIC ([1]; 37° C., about 16 hours): < 7 µg/mL; MIC ([3]; 16 h, 37° C., about 16 hours): > 25 µg/mL |
| NCCCNC(=O)c1cc(-c2c[nH]c3ccccc23)nc2ccccc12 [compound 1] | > 25 µg/mL | > 25 µg/mL |  |  |  |
| NCCNC(=O)c1cc(-c2c[nH]c3ccc(Br)cc23)nc2ccccc12 [compound 2] | < 25 µg/mL | < 25 µg/mL |  |  |  |
| NCCCNC(=O)c1cc(-c2c[nH]c3ccc(Br)cc23)nc2ccccc12 [compound 3] | < 25 µg/mL | < 25 µg/mL |  |  |  |
| NCc1cccc(CNC(=O)c2cc(-c3c[nH]c4ccc(Br)cc34)nc3ccccc23)c1 [compound 4] | < 25 µg/mL | < 7 µg/mL |  |  |  |
| NCC1CCCC(CNC(=O)c2cc(-c3c[nH]c4ccc(Br)cc34)nc3ccccc23)C1 (stereo not shown) [compound 5] | < 7 µg/mL | < 7 µg/mL |  |  |  |
| NCc1ccc(CNC(=O)c2ccc3nc(-c4c[nH]c5ccc(Br)cc45)ccc3c2)cc1 [compound 6] | > 25 µg/mL | > 25 µg/mL |  |  |  |
| NCc1ccc(CNC(=O)c2cc(-c3c[nH]c4ccccc34)nc3ccccc23)cc1 [compound 7] | > 25 µg/mL | > 25 µg/mL |  |  |  |
| O=C(c1cc(-c2c[nH]c3ccccc23)nc2ccccc12)N1CCNCC1 [compound 8] | > 25 µg/mL | > 25 µg/mL |  |  |  |
| NC1CCCCC1NC(=O)c1cc(-c2c[nH]c3ccc(Br)cc23)nc2ccccc12 (stereo not shown) [compound 10] | < 25 µg/mL | < 25 µg/mL |  |  |  |
| O=C(c1cc(-c2c[nH]c3ccc(Br)cc23)nc2ccccc12)N1CCNCC1 [compound 11] | < 25 µg/mL | < 25 µg/mL |  |  |  |
| NCCCCNC(=O)c1cc(-c2c[nH]c3ccc(Br)cc23)nc2ccccc12 [compound 58] | < 25 µg/mL | < 25 µg/mL |  |  |  |
